This passage reports IC50 and remaining activity results from US8802711B2, “TRPV1 antagonists” (AbbVie Inc., priority 2011, dated 2014).

In test [1] the target is T1, human TRPV1 receptor (hTRPV1) (Homo sapiens (Human), UniProt Q8NER1). The test is described as follows: Capsaicin activation assay (FLIPR intracellular Ca2+). It counts as cell-based. To be noted: Table 1; inhibition of capsaicin-induced intracellular Ca2+ increase, HEK293 cells expressing human TRPV1; read-out: hTRPV1 cap IC50. The method in brief: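 HEK293 cells stably expressing human TRPV1, loaded with Calcium-4 dye 90–120 min at room temperature, preincubated 3 min with compound (12-point one-third-log range) before capsaicin (200 nM as 4× solution). Peak FLIPR fluorescence minus baseline expressed as percent of 50 nM capsaicin control response.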
T1 sequence (Q8NER1 whole entry): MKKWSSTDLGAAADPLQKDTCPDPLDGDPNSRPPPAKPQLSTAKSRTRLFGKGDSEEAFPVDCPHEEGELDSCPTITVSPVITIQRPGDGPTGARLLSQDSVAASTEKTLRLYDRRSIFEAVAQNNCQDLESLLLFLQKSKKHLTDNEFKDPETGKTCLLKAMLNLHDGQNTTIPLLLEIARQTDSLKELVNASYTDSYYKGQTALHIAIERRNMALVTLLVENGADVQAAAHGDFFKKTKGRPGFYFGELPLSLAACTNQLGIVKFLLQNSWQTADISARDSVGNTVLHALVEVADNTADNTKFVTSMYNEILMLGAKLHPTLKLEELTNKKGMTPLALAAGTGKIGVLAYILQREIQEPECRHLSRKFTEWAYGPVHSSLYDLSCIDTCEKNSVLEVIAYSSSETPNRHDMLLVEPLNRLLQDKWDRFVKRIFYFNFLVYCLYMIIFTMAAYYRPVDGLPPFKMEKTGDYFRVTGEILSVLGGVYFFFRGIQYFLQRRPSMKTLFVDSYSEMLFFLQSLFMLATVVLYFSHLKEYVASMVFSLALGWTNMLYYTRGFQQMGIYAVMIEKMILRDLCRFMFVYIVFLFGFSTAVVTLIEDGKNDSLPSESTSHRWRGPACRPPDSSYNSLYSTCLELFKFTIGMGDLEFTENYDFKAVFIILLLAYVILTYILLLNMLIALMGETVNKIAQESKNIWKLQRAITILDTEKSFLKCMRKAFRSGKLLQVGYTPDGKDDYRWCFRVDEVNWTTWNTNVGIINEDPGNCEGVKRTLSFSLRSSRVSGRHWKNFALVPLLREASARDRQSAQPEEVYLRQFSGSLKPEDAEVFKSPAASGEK

The target in test [2] is T1, human TRPV1 receptor (hTRPV1). The test is described as follows: Acid activation assay (pH 5.0, FLIPR intracellular Ca2+). It counts as cell-based. The settings on record: Table 1; 37.5 μM antagonist, percentage of the maximal pH 5.0-induced response remaining; read-out: hTRPV1 H+ (max % remain). In a few lines: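 1321N1 astrocytoma cells stably expressing homomeric hTRPV1, loaded with Calcium-4 dye 90–120 min at 25 °C. Compounds, 12-point half-log range, added 3 min before pH 5.0 DPBS/MES challenge; intracellular Ca2+ read by FLIPR fluorescence.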

Broadly, the IC50 is the concentration needed to halve the response being measured. `O=C(Nc1cccc2[nH]ncc12)N[C@@H]1C[C@H](c2ccccc2)[C@@H]2[C@H]1C2(F)F` [Example 54, 1-((1R,2R,4S,5R)-6,6-difluoro-4-phenylbicyclo[3.1.0]hex-2-yl)-3-(1H-indazol-4-yl)urea]: in test [1], the 50% inhibitory concentration (IC50) was 1340 nM. In test [2], the remaining activity at 37.5 µM was 69%.

Take `O=C(Nc1cccc2[nH]ncc12)N[C@@H]1C[C@H](c2ccccc2)[C@@H]2C[C@@H]21` [Example 55, 1-(1H-indazol-4-yl)-3-((1S,2R,4S,5S)-4-phenylbicyclo[3.1.0]hex-2-yl)urea]: the IC50 in test [1] amounted to 37 nM. The remaining activity at 37.5 µM in test [2] was found to be 11%.

As for `O=C(Nc1cccc2[nH]ncc12)N[C@H]1C[C@@H](c2ccccc2)C1` [Example 56, 1-(1H-indazol-4-yl)-3-(cis-3-phenylcyclobutyl)urea], the IC50 in test [1] was 14 nM. Also, the remaining activity at 37.5 µM in test [2] was 10%.

Consider `O=C(Nc1cccc2[nH]ncc12)N[C@H]1C[C@H](c2ccccc2)C1` [Example 57, 1-(1H-indazol-4-yl)-3-(trans-3-phenylcyclobutyl)urea], for which, in test [1], the IC50 amounted to 64 nM. The remaining activity at 37.5 µM in test [2] came out at 4%.

For the molecule `O=C(Nc1cccc2c1C[C@H](O)C2)N[C@H]1C[C@H](c2ccccc2)C1` [Example 59, 1-[(2R)-2-hydroxy-2,3-dihydro-1H-inden-4-yl]-3-(trans-3-phenylcyclobutyl)urea], the IC50 in test [1] is 435 nM. In addition, the remaining activity at 37.5 µM in test [2] is 79%.

Take `O=C(Nc1cccc2c1C[C@H](O)C2)N[C@H]1C[C@@H](c2ccccc2)C1` [Example 60, 1-[(2R)-2-hydroxy-2,3-dihydro-1H-inden-4-yl]-3-(cis-3-phenylcyclobutyl)urea]: the IC50 in test [1] came to 331 nM. For the same molecule, the remaining activity at 37.5 µM in test [2] is 72%.

Regarding `O=C(Nc1cccc2[nH]ncc12)N[C@H]1CC[C@H](c2ccccc2F)C1` [Example 62, 1-[(1S,3S)-3-(2-fluorophenyl)cyclopentyl]-3-(1H-indazol-4-yl)urea], the IC50 in test [1] came to 10 nM. For the same molecule, the remaining activity at 37.5 µM in test [2] was 5%.

Turning to `O=C(Nc1cccc2[nH]ncc12)N[C@H]1C=C[C@@H](c2ccccc2)C1` [Example 63, 1-(1H-indazol-4-yl)-3-[(1R,4S)-4-phenylcyclopent-2-en-1-yl]urea], in test [1], the IC50 turned out to be 122 nM. The remaining activity at 37.5 µM in test [2] is 38%.

`O=C(Nc1cccc2[nH]ncc12)N[C@@H]1CC[C@H](c2cccc(F)c2)C1` [Example 65, 1-[(1R,3S)-3-(3-fluorophenyl)cyclopentyl]-3-(1H-indazol-4-yl)urea]: the IC50 in test [1] was found to be 8 nM. Also, the remaining activity at 37.5 µM in test [2] amounted to 12%.

Consider `O=C(Nc1cccc2[nH]ncc12)N[C@H]1CC[C@@H](c2ccccc2F)C1` [Example 67, 1-[(1S,3R)-3-(2-fluorophenyl)cyclopentyl]-3-(1H-indazol-4-yl)urea], for which, in test [1], the concentration for half-maximal inhibition (IC50) was determined as 11 nM. For the same molecule, the remaining activity at 37.5 µM in test [2] was 18%.

Consider `O=C(Nc1cccc2[nH]ncc12)N[C@@H]1CC[C@@H](c2cccc(F)c2)C1` [Example 68, 1-[(1R,3R)-3-(3-fluorophenyl)cyclopentyl]-3-(1H-indazol-4-yl)urea], for which the IC50 in test [1] was found to be 48 nM. The remaining activity at 37.5 µM in test [2] was 41%.

For the molecule `O=C(Nc1cccc2[nH]ncc12)N[C@H]1CC[C@@H](c2cccc(F)c2)C1` [Example 69, 1-[(1S,3R)-3-(3-fluorophenyl)cyclopentyl]-3-(1H-indazol-4-yl)urea], the IC50 in test [1] amounted to 12 nM. The remaining activity at 37.5 µM in test [2] stood at 2%.

In the case of `Cc1cc2c(NC(=O)N[C@@H]3CC[C@H](c4ccccc4F)C3)c(F)ccc2cn1` [Example 70, 1-(6-fluoro-3-methylisoquinolin-5-yl)-3-[(1R,3S)-3-(2-fluorophenyl)cyclopentyl]urea], the IC50 in test [1] amounted to 5.6 nM. In addition, the remaining activity at 37.5 µM in test [2] worked out at 22%.

Regarding `Cc1cc2c(NC(=O)N[C@H]3CC[C@H](c4ccccc4F)C3)c(F)ccc2cn1` [Example 71, 1-(6-fluoro-3-methylisoquinolin-5-yl)-3-[(1S,3S)-3-(2-fluorophenyl)cyclopentyl]urea], the IC50 in test [1] worked out at 8.6 nM. For the same molecule, the remaining activity at 37.5 µM in test [2] stood at 15%.

With `C[C@@]1(c2ccccc2)CC[C@H](NC(=O)Nc2cccc3[nH]ncc23)C1` [Example 72, 1-(1H-indazol-4-yl)-3-[(1S,3R)-3-methyl-3-phenylcyclopentyl]urea], in test [1], the IC50 worked out at 80 nM. Also, the remaining activity at 37.5 µM in test [2] is 22%.

`C[C@@]1(c2ccccc2)CC[C@@H](NC(=O)Nc2cccc3[nH]ncc23)C1` [Example 73, 1-(1H-indazol-4-yl)-3-[(1R,3R)-3-methyl-3-phenylcyclopentyl]urea]: the IC50 in test [1] amounted to 164 nM. The remaining activity at 37.5 µM in test [2] was 11%.

Take `Cc1cc2c(NC(=O)N[C@H]3CC[C@H](c4cccc(F)c4)C3)c(F)ccc2cn1` [Example 74, 1-(6-fluoro-3-methylisoquinolin-5-yl)-3-[(1S,3S)-3-(3-fluorophenyl)cyclopentyl]urea]: the IC50 in test [1] was 3.5 nM. In addition, the remaining activity at 37.5 µM in test [2] came out at 44%.

Regarding `Cc1cc2c(NC(=O)N[C@@H]3CC[C@@](C)(c4ccccc4)C3)c(F)ccc2cn1` [Example 75, 1-(6-fluoro-3-methylisoquinolin-5-yl)-3-[(1R,3R)-3-methyl-3-phenylcyclopentyl]urea], the IC50 in test [1] was determined as 21 nM. In addition, in test [2], the remaining activity at 37.5 µM amounted to 16%.

With `Cc1cc2c(NC(=O)N[C@@H]3CC[C@H](c4cccc(F)c4)C3)c(F)ccc2cn1` [Example 76, 1-(6-fluoro-3-methylisoquinolin-5-yl)-3-[(1R,3S)-3-(3-fluorophenyl)cyclopentyl]urea], the concentration for half-maximal inhibition (IC50) in test [1] was found to be 2 nM. Moreover, the remaining activity at 37.5 µM in test [2] was 9%.

As for `CN1C(=O)CCc2ccc(NC(=O)N[C@@H]3CC[C@H](c4ccccc4)C3)cc21` [Example 77, 1-(1-methyl-2-oxo-1,2,3,4-tetrahydroquinolin-7-yl)-3-[(1R,3S)-3-phenylcyclopentyl]urea], the IC50 in test [1] is greater than 37500 nM. For the same molecule, the remaining activity at 37.5 µM in test [2] came out at 56%.

As to `Cn1c(=O)ccc2c(NC(=O)N[C@H]3CC[C@@H](c4cccc(F)c4)C3)cccc21` [Example 79, 1-[(1S,3R)-3-(3-fluorophenyl)cyclopentyl]-3-(1-methyl-2-oxo-1,2-dihydroquinolin-5-yl)urea], the IC50 in test [1] amounted to 11 nM. For the same molecule, the remaining activity at 37.5 µM in test [2] is 75%.

In the case of `Cn1c(=O)ccc2c(NC(=O)N[C@H]3CC[C@@H](c4ccccc4F)C3)cccc21` [Example 80, 1-[(1S,3R)-3-(2-fluorophenyl)cyclopentyl]-3-(1-methyl-2-oxo-1,2-dihydroquinolin-5-yl)urea], the concentration for half-maximal inhibition (IC50) in test [1] came to 10 nM. In addition, in test [2], the remaining activity at 37.5 µM was 55%.

Turning to `Cn1c(=O)ccc2c(NC(=O)N[C@@H]3CC[C@@H](c4ccccc4F)C3)cccc21` [Example 81, 1-[(1R,3R)-3-(2-fluorophenyl)cyclopentyl]-3-(1-methyl-2-oxo-1,2-dihydroquinolin-5-yl)urea], the IC50 in test [1] turned out to be 2.3 nM. The remaining activity at 37.5 µM in test [2] worked out at 66%.

Take `Cc1cc2c(NC(=O)N[C@@H]3CC[C@@H](c4ccccc4F)C3)c(F)ccc2cn1` [Example 82, 1-(6-fluoro-3-methylisoquinolin-5-yl)-3-[(1R,3R)-3-(2-fluorophenyl)cyclopentyl]urea]: the half-inhibitory concentration (IC50) in test [1] came to 3.3 nM. For the same molecule, the remaining activity at 37.5 µM in test [2] turned out to be 12%.

`Cc1cc2c(NC(=O)N[C@H]3CC[C@@H](c4ccccc4F)C3)c(F)ccc2cn1` [Example 83, 1-(6-fluoro-3-methylisoquinolin-5-yl)-3-[(1S,3R)-3-(2-fluorophenyl)cyclopentyl]urea]: in test [1], the IC50 came to 5.3 nM. In addition, in test [2], the remaining activity at 37.5 µM was 48%.

`Cc1cc2c(NC(=O)N[C@@H]3CC[C@@H](c4cccc(F)c4)C3)c(F)ccc2cn1` [Example 84, 1-(6-fluoro-3-methylisoquinolin-5-yl)-3-[(1R,3R)-3-(3-fluorophenyl)cyclopentyl]urea]: the IC50 in test [1] is 5.4 nM. The remaining activity at 37.5 µM in test [2] turned out to be 13%.

Regarding `Cc1cc2c(NC(=O)N[C@H]3CC[C@@H](c4cccc(F)c4)C3)c(F)ccc2cn1` [Example 85, 1-(6-fluoro-3-methylisoquinolin-5-yl)-3-[(1S,3R)-3-(3-fluorophenyl)cyclopentyl]urea], the IC50 in test [1] turned out to be 8.9 nM. Besides, the remaining activity at 37.5 µM in test [2] was 21%.

Consider `O=C(Nc1cccc2c1C[C@@H](O)C2)N[C@@H]1CC[C@@H](c2cccc(F)c2)C1` [Example 86, 1-[(1R,3R)-3-(3-fluorophenyl)cyclopentyl]-3-[(2S)-2-hydroxy-2,3-dihydro-1H-inden-4-yl]urea], for which, in test [1], the IC50 was 80 nM. For the same molecule, the remaining activity at 37.5 µM in test [2] was determined as 0%.

In the case of `O=C(Nc1cccc2c1C[C@@H](O)C2)N[C@H]1CC[C@@H](c2cccc(F)c2)C1` [Example 87, 1-[(1S,3R)-3-(3-fluorophenyl)cyclopentyl]-3-[(2S)-2-hydroxy-2,3-dihydro-1H-inden-4-yl]urea], the IC50 in test [1] turned out to be 248 nM. The remaining activity at 37.5 µM in test [2] is 17%.

With `O=C(Nc1cccc2c1C[C@@H](O)C2)N[C@@H]1CC[C@@H](c2ccccc2F)C1` [Example 88, 1-[(1R,3R)-3-(2-fluorophenyl)cyclopentyl]-3-[(2S)-2-hydroxy-2,3-dihydro-1H-inden-4-yl]urea], the IC50 in test [1] stood at 20 nM. Besides, the remaining activity at 37.5 µM in test [2] is 16%.

Regarding `O=C(Nc1cccc2c1C[C@@H](O)C2)N[C@H]1CC[C@@H](c2ccccc2F)C1` [Example 89, 1-[(1S,3R)-3-(2-fluorophenyl)cyclopentyl]-3-[(2S)-2-hydroxy-2,3-dihydro-1H-inden-4-yl]urea], the concentration for half-maximal inhibition (IC50) in test [1] came to 88 nM. In addition, the remaining activity at 37.5 µM in test [2] was found to be 15%.
